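Grown in 96-well plates, cells were treated for 48 hours with each compound at five concentrations. Insufficient inhibition: endpoint recorded as highest concentration tested. GI50 = concentration required for 50% inhibition of growth.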 Calls of active or inactive are those of the source. Cut-off read from the data, not from the text of the source: active = GI50 up to about 1.1 µM and inactive = higher.
Assays:
Assay in all cases: NCI-60 cell line screen, 48 h
CCRF-CEM = test system: CCRF-CEM
EKVX = test system: EKVX
HCT-116 = test system: HCT-116
HOP-92 = test system: HOP-92
HT-29 = test system: HT-29
Hs-578T = test system: Hs-578T
NCI/ADR-RES = test system: NCI/ADR-RES
OVCAR-3 = test system: OVCAR-3
OVCAR-4 = test system: OVCAR-4
OVCAR-5 = test system: OVCAR-5
OVCAR-8 = test system: OVCAR-8
PC-3 = test system: PC-3
SF-295 = test system: SF-295
SN12C = test system: SN12C
TK-10 = test system: TK-10
U-251 = test system: U-251
UACC-62 = test system: UACC-62
NCI-H522 = test system: NCI-H522
K562 = test system: K562
SR = test system: SR

Measured: GI50

Cc1csc2nc(-c3ccc(Cl)c([N+](=O)[O-])c3)c(/C=N/NC(=N)N)n12
active: CCRF-CEM 1.01 µM | HOP-92 0.163 µM | OVCAR-8 0.406 µM
inactive: EKVX 1.49 µM | HCT-116 1.68 µM | HT-29 1.77 µM | Hs-578T 1.4 µM | NCI/ADR-RES 2.21 µM | OVCAR-3 1.96 µM | OVCAR-4 1.64 µM | OVCAR-5 1.21 µM | PC-3 1.48 µM | SF-295 1.4 µM | SN12C 1.76 µM | TK-10 2.2 µM | U-251 1.5 µM | UACC-62 1.72 µM

Cn1c(=O)c2ccccc2c2ccccc21
inactive: CCRF-CEM 66.5 µM | EKVX 18.8 µM | HCT-116 45 µM | HOP-92 48.3 µM | HT-29 40.2 µM | Hs-578T 44.5 µM | NCI-H522 36.6 µM | NCI/ADR-RES 37 µM | OVCAR-3 52.7 µM | OVCAR-4 66.7 µM | OVCAR-8 45.9 µM | PC-3 71.6 µM | SF-295 48.4 µM | SN12C 49.2 µM | TK-10 34.1 µM | U-251 57.1 µM | UACC-62 39.8 µM

CC1=C(C(=O)OCCc2ccc([N+](=O)[O-])cc2)C(c2ccccc2C(F)(F)F)C(C(=O)OC(C)C)=C(C)N1 (centres undefined)
inactive: CCRF-CEM 2.84 µM | EKVX 2.05 µM | HCT-116 2.92 µM | HT-29 10.1 µM | Hs-578T 2.12 µM | K562 2.41 µM | NCI-H522 3.31 µM | NCI/ADR-RES 2.75 µM | OVCAR-3 3.48 µM | OVCAR-4 38 µM | OVCAR-5 16.1 µM | OVCAR-8 4.04 µM | PC-3 1.98 µM | SF-295 2.68 µM | SN12C 3.12 µM | SR 3.11 µM | TK-10 3.78 µM | U-251 3.52 µM | UACC-62 3.22 µM

O=C(/C=C/c1ccsc1)c1ccsc1
inactive: CCRF-CEM 19.1 µM | EKVX 70.5 µM | HCT-116 16.2 µM | HT-29 26.8 µM | Hs-578T 27.8 µM | K562 > 10 µM | NCI/ADR-RES > 100 µM | OVCAR-4 37.2 µM | OVCAR-8 26.6 µM | PC-3 19.8 µM | SF-295 40.7 µM | SN12C 19.5 µM | SR 19.5 µM | TK-10 23.8 µM | U-251 18.1 µM | UACC-62 32.4 µM

CN1C(=O)C(c2c[nH]c3ccccc23)N(C)C(=O)C1c1c[nH]c2ccccc12 (centres undefined)
inactive: CCRF-CEM > 100 µM | EKVX > 100 µM | HCT-116 > 100 µM | HOP-92 37.2 µM | HT-29 > 100 µM | Hs-578T 62.1 µM | K562 > 100 µM | NCI-H522 > 100 µM | NCI/ADR-RES > 100 µM | OVCAR-3 > 100 µM | OVCAR-4 > 100 µM | OVCAR-5 > 100 µM | OVCAR-8 > 100 µM | PC-3 > 100 µM | SF-295 > 100 µM | SN12C > 100 µM | TK-10 > 100 µM | U-251 > 100 µM | UACC-62 > 100 µM

COc1ccc(C(=O)/C=C/c2ccc3c(c2)OCO3)c(OCc2ccccc2)c1
inactive: CCRF-CEM 4.3 µM | EKVX 29.8 µM | HCT-116 6.79 µM | HOP-92 > 78 µM | HT-29 6.78 µM | Hs-578T 7.82 µM | K562 12.5 µM | NCI-H522 9.68 µM | OVCAR-3 19.1 µM | OVCAR-4 15.1 µM | OVCAR-5 > 76.7 µM | OVCAR-8 7.67 µM | PC-3 11.6 µM | SF-295 > 61.8 µM | SN12C 15.9 µM | SR 3.24 µM | TK-10 > 90.8 µM | U-251 > 57.5 µM | UACC-62 17.4 µM

COc1ccc(/C=C/c2cnnc3ccccc23)cc1OC
inactive: CCRF-CEM > 10 µM | EKVX > 10 µM | HCT-116 > 10 µM | HOP-92 3.7 µM | HT-29 > 10 µM | Hs-578T > 10 µM | K562 > 10 µM | NCI-H522 > 10 µM | NCI/ADR-RES > 10 µM | OVCAR-3 > 10 µM | OVCAR-4 > 10 µM | OVCAR-5 > 10 µM | OVCAR-8 > 10 µM | PC-3 > 10 µM | SF-295 > 10 µM | SN12C > 10 µM | TK-10 > 10 µM | U-251 > 10 µM | UACC-62 > 10 µM

CCN(CC)C(=C(C(Cl)=C(Cl)Cl)[N+](=O)[O-])N(CC)CC
inactive: CCRF-CEM 30.6 µM | EKVX > 100 µM | HCT-116 87.7 µM | HT-29 > 100 µM | Hs-578T 24.7 µM | K562 46.5 µM | NCI/ADR-RES 54 µM | OVCAR-3 37.5 µM | OVCAR-4 > 100 µM | OVCAR-5 > 100 µM | OVCAR-8 > 100 µM | PC-3 > 100 µM | SF-295 > 100 µM | SN12C 93.5 µM | SR 33.7 µM | TK-10 > 100 µM | U-251 > 100 µM | UACC-62 49.4 µM

C[N+](C)(C)CCC(=O)N1C/C(=C\c2ccccc2)C(=O)/C(=C/c2ccccc2)C1
inactive: CCRF-CEM 1.64 µM | EKVX 21.4 µM | HCT-116 1.53 µM | HOP-92 20.6 µM | HT-29 2.79 µM | Hs-578T 4.31 µM | K562 1.21 µM | NCI-H522 2.25 µM | NCI/ADR-RES 1.64 µM | OVCAR-3 3.82 µM | OVCAR-4 3.37 µM | OVCAR-5 16.9 µM | OVCAR-8 3.52 µM | PC-3 2.49 µM | SF-295 3.78 µM | SN12C 2.08 µM | TK-10 14.4 µM | U-251 3.03 µM | UACC-62 3.58 µM

C[n+]1ccccc1/C=C/c1ccc2c(c1)OCO2
inactive: CCRF-CEM > 10 µM | EKVX > 10 µM | HCT-116 > 10 µM | HT-29 > 10 µM | Hs-578T > 10 µM | K562 > 10 µM | NCI-H522 > 10 µM | NCI/ADR-RES > 10 µM | OVCAR-3 > 10 µM | OVCAR-4 > 10 µM | OVCAR-5 > 10 µM | OVCAR-8 > 10 µM | PC-3 > 10 µM | SF-295 > 10 µM | SN12C > 10 µM | SR > 10 µM | TK-10 > 10 µM | U-251 > 10 µM | UACC-62 > 10 µM

CC1(C)C2CC(=O)C1(C)C(O)C2Br (centres undefined)
inactive: CCRF-CEM > 100 µM | EKVX > 100 µM | HCT-116 > 100 µM | HOP-92 > 100 µM | HT-29 > 100 µM | Hs-578T 98.2 µM | K562 > 100 µM | NCI/ADR-RES > 100 µM | OVCAR-3 > 100 µM | OVCAR-5 > 100 µM | OVCAR-8 > 100 µM | PC-3 > 100 µM | SF-295 > 100 µM | SN12C > 100 µM | TK-10 > 100 µM | U-251 > 100 µM | UACC-62 > 100 µM

CN(C)c1ccc2c(SCC(=O)OCC(=O)[C@@]3(O)CC[C@H]4[C@@H]5CCC6=CC(=O)C=C[C@]6(C)[C@H]5C(=O)C[C@@]43C)c3ccc(N(C)C)cc3nc2c1
inactive: CCRF-CEM 1.35 µM | EKVX 18.1 µM | HCT-116 2.82 µM | HOP-92 30.7 µM | HT-29 2.02 µM | Hs-578T > 100 µM | K562 2.64 µM | NCI-H522 21.8 µM | OVCAR-3 5.24 µM | OVCAR-4 10.9 µM | OVCAR-5 32.1 µM | OVCAR-8 8.11 µM | PC-3 20.8 µM | SF-295 14 µM | SN12C 7.01 µM | SR 1.35 µM | TK-10 16.3 µM | U-251 15 µM | UACC-62 10.8 µM

CC[C@H](C)[C@H](NC(=O)[C@@]1(O)[C@H](O)[C@]2(CC)C=CCN3CC[C@@]4(c5cc(Br)c(OC)cc5N(C)[C@@H]14)[C@@H]32)C(=O)OC
inactive: CCRF-CEM 27.8 µM | EKVX 40.2 µM | HCT-116 25.5 µM | HT-29 11.6 µM | Hs-578T 23.2 µM | K562 67.1 µM | NCI-H522 27.5 µM | NCI/ADR-RES 57.8 µM | OVCAR-3 20.7 µM | OVCAR-4 4.84 µM | OVCAR-5 > 100 µM | OVCAR-8 39.4 µM | PC-3 76.7 µM | SF-295 33.8 µM | SN12C 27.2 µM | SR 27.2 µM | TK-10 38.3 µM | U-251 27.8 µM | UACC-62 12.6 µM

Oc1cccc(-c2cc(O)c3cc4c(cc3n2)OCO4)c1
active: CCRF-CEM 0.54 µM | Hs-578T 0.457 µM | K562 0.505 µM | NCI-H522 0.284 µM | OVCAR-3 0.193 µM | SR 0.283 µM
inactive: HCT-116 1.43 µM | HT-29 3.37 µM | NCI/ADR-RES 1.31 µM | OVCAR-4 > 100 µM | OVCAR-5 > 100 µM | OVCAR-8 2.85 µM | PC-3 1.55 µM | SF-295 5.74 µM | SN12C 3.03 µM | TK-10 13.2 µM | U-251 1.43 µM | UACC-62 2.42 µM

O=S(=O)(N/C(=N\O)Nc1ccc(Cl)cc1)c1ccc(S(=O)(=O)c2ccccc2)s1
inactive: CCRF-CEM 19.1 µM | EKVX 18.8 µM | HCT-116 16.7 µM | HOP-92 6.92 µM | HT-29 22.3 µM | Hs-578T 28.6 µM | K562 16.6 µM | NCI-H522 16.9 µM | NCI/ADR-RES 27.5 µM | OVCAR-3 18.4 µM | OVCAR-4 14.1 µM | OVCAR-5 24.3 µM | OVCAR-8 24.3 µM | PC-3 25.9 µM | SF-295 26.5 µM | SN12C 17.4 µM | TK-10 23.8 µM | U-251 20.8 µM | UACC-62 14.9 µM

Source: ChEMBL document CHEMBL1201862, “PubChem BioAssay data set” (2004)
